# From patent publication US8871753B2, “Macrocyclic compounds and their use as kinase inhibitors” (Incyte Corporation, priority 2008, dated 2014)
# Where a name gives a salt, the structure may show the parent alone.
# Legend:
# Type in all cases: biochemical
# [1] = biological target: T1, human JAK3 (a.a. 781-1124) (Homo sapiens, UniProt P52333); test: In vitro JAK kinase assay (HTRF, phosphorylation of a biotinylated peptide), JAK3; details: Table D1
# T1 construct: JAK3 (a.a. 781-1124); His tag (N); made in house; host or cells: insect cells (baculovirus)
# How it was run: (§1)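 Phosphorylation of a biotinylated peptide by the JAK kinase domain, detected by HTRF with Eu-Py20 and SA-APC. ATP was 90 μM for JAK1, 30 μM for JAK2 and 3 μM for JAK3. Reactions ran 1 h at room temperature and were stopped with EDTA, followed by 40 min antibody binding.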
# [2] = biological target: T2, human JAK2 (a.a. 828-1132) (Homo sapiens, UniProt O60674); test: In vitro JAK kinase assay (HTRF, phosphorylation of a biotinylated peptide), JAK2; details: Table D1
# T2 construct: JAK2 (a.a. 828-1132); His tag (N); made in house; host or cells: insect cells (baculovirus)
# How it was run: as §1
# TYK2 = TYK2 (Homo sapiens, UniProt P29597); test: TYK2 kinase inhibition (Table A1); details: Table D1
# [3] = biological target: T3, human JAK1 (a.a. 837-1142) (Homo sapiens, UniProt P23458); test: In vitro JAK kinase assay (HTRF, phosphorylation of a biotinylated peptide), JAK1; details: Table D1; read-out: JAK1 IC50
# T3 construct: human JAK1 (a.a. 837-1142); His tag (N); made in house; host or cells: insect cells (baculovirus)
# How it was run: as §1
# T1 sequence (P52333 781-1124): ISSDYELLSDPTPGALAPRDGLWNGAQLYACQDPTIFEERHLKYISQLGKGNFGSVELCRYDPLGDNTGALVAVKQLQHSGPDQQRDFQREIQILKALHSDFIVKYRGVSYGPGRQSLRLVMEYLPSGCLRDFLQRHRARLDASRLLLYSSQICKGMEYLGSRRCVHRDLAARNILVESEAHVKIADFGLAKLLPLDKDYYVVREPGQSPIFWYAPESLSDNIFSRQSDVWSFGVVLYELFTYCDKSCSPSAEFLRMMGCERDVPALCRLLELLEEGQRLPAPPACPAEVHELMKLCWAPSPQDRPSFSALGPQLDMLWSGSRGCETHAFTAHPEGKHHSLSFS
# T2 sequence (O60674 828-1132): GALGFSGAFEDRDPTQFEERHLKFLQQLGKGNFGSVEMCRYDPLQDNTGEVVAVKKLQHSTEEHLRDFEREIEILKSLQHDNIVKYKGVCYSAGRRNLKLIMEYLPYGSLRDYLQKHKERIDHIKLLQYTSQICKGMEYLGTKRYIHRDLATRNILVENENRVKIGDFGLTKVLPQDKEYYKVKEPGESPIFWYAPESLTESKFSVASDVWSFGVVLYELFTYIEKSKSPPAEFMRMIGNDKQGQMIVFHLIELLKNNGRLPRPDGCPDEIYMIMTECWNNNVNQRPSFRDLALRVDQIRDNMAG
# Chain of TYK2 (P29597 whole entry): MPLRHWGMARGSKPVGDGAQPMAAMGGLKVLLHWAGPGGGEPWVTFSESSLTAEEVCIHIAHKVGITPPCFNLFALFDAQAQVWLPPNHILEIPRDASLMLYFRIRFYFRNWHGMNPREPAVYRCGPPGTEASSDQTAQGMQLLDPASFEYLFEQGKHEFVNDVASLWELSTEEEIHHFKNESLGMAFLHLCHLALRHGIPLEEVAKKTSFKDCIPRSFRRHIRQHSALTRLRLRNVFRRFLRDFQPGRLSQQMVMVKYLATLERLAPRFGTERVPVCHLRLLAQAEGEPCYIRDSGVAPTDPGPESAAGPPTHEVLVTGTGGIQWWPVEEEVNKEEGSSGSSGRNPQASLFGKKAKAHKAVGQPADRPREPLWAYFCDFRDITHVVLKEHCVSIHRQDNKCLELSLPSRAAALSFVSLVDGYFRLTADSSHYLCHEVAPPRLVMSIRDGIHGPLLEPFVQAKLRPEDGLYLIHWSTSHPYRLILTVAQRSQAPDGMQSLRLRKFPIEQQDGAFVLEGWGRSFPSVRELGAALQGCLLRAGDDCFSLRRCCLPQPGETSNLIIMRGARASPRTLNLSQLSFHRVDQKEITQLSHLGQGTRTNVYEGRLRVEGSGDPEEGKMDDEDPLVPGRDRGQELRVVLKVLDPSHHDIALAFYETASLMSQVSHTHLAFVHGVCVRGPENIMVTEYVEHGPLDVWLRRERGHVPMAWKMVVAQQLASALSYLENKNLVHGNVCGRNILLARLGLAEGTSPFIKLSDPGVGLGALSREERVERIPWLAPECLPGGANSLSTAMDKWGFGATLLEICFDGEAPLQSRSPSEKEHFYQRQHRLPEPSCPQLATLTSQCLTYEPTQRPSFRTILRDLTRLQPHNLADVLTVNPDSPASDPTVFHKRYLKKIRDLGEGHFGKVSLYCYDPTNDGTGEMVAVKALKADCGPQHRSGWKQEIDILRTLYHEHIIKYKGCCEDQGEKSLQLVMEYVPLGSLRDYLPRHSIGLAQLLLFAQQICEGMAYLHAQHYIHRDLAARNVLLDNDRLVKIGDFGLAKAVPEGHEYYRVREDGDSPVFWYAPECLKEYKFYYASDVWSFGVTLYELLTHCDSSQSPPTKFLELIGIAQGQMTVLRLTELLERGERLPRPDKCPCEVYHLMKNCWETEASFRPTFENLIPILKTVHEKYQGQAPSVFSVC
# T3 sequence (P23458 849-1154): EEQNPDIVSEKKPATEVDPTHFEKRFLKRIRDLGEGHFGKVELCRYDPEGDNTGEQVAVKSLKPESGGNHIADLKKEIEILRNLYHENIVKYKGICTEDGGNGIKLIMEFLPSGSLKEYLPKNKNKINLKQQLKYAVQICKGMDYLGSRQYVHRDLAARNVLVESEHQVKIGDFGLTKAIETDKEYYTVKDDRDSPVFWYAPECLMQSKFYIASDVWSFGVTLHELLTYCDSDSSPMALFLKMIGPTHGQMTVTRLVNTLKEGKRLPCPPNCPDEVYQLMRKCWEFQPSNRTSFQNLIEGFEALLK
Compound,IC50 [1] [nM],IC50 [2] [nM],IC50 (TYK2) [nM],IC50 [3] [nM]
"O=C(C[C@@H]1CCCN(C(=O)c2ccccc2)C1)Nc1ccc2cc1CCc1cccc(c1)Nc1ncc(Cl)c(n1)N2 [Example D202, 2-[(3S)-1-Benzoylpiperidin-3-yl]-N-[6-chloro-2,4,8,22-tetraazatetracyclo[14.3.1.1(3,7).1(9,13)]docosa-1(20),3(22),4,6,9(21),10,12,16,18-nonaen-12-yl]acetamide trifluoroacetate]",65,12,30,22
"O=C(C[C@H]1CCCN(C(=O)c2ccccc2)C1)Nc1ccc2cc1CCc1cccc(c1)Nc1ncc(Cl)c(n1)N2 [Example D203, 2-[(3R)-1-Benzoylpiperidin-3-yl]-N-[6-chloro-2,4,8,22-tetraazatetracyclo[14.3.1.1(3,7).1(9,13)]docosa-1(20),3(22),4,6,9(21),10,12,16,18-nonaen-12-yl]acetamide trifluoroacetate]",85,13,70,32
"CC(=O)N1CCC[C@@H](CC(=O)Nc2ccc3cc2CCc2cncc(c2)Nc2ncc(Cl)c(n2)N3)C1 [Example D204, 2-[(3S)-1-Acetylpiperidin-3-yl]-N-[6-chloro-2,4,8,18,22-pentaazatetracyclo[14.3.1.1(3,7).1(9,13)]docosa-1(20),3(22),4,6,9(21),10,12,16,18-nonaen-12-yl]acetamide bis(trifluoroacetate)]",101,12,12,7.2
"CC(=O)N1CCC[C@H](CC(=O)Nc2ccc3cc2CCc2cncc(c2)Nc2ncc(Cl)c(n2)N3)C1 [Example D205, 2-[(3R)-1-Acetylpiperidin-3-yl]-N-[6-chloro-2,4,8,18,22-pentaazatetracyclo[14.3.1.1(3,7).1(9,13)]docosa-1(20),3(22),4,6,9(21),10,12,16,18-nonaen-12-yl]acetamide bis(trifluoroacetate)]",107,15,25,7.1
"O=C(C[C@@H]1CCCN(C(=O)c2ccccc2)C1)Nc1ccc2cc1CCc1cncc(c1)Nc1ncc(Cl)c(n1)N2 [Example D206, 2-[(3S)-1-Benzoylpiperidin-3-yl]-N-[6-chloro-2,4,8,18,22-pentaazatetracyclo[14.3.1.1(3,7).1(9,13)]docosa-1(20),3(22),4,6,9(21),10,12,16,18-nonaen-12-yl]acetamide bis(trifluoroacetate)]",147,14,13,9.2
"O=C(C[C@H]1CCCN(C(=O)c2ccccc2)C1)Nc1ccc2cc1CCc1cncc(c1)Nc1ncc(Cl)c(n1)N2 [Example D207, 2-[(3R)-1-Benzoylpiperidin-3-yl]-N-[6-chloro-2,4,8,18,22-pentaazatetracyclo[14.3.1.1(3,7).1(9,13)]docosa-1(20),3(22),4,6,9(21),10,12,16,18-nonaen-12-yl]acetamide bis(trifluoroacetate)]",109,5.4,56,9.4
"Cc1cc(C(=O)N2CCC[C@@H](CC(=O)Nc3ccc4cc3CCc3cncc(c3)Nc3ncc(Cl)c(n3)N4)C2)no1 [Example D208, N-[6-Chloro-2,4,8,18,22-pentaazatetracyclo[14.3.1.1(3,7).1(9,13)]docosa-1(20),3(22),4,6,9(21),10,12,16,18-nonaen-12-yl]-2-{(3S)-1-[(5-methylisoxazol-3-yl)carbonyl]piperidin-3-yl}acetamide bis(trifluoroacetate)]",64,15,82,18
"O=C(OCc1ccccc1)N1CCC(CCNc2ccc3cc2CCc2cncc(c2)Nc2ncc(Cl)c(n2)N3)CC1 [Example D215, Benzyl 4-(2-{[6-chloro-2,4,8,18,22-pentaazatetracyclo[14.3.1.1(3,7).1(9,13)]docosa-1(20),3(22),4,6,9(21),10,12,16,18-nonaen-12-yl]amino}ethyl)piperidine-1-carboxylate]",> 400,44,276,13
"Clc1cnc2nc1Nc1ccc(NCCC3CCNCC3)c(c1)CCc1cncc(c1)N2 [Example D216, 6-Chloro-N-(2-piperidin-4-ylethyl)-2,4,8,18,22-pentaazatetracyclo[14.3.1.1(3,7).1(9,13)]docosa-1(20),3(22),4,6,9(21),10,12,16,18-nonaen-12-amine tetrakis(trifluoroacetate)]",> 400,276,300,23
"Cc1cc(C(=O)N2CCC(CCNc3ccc4cc3CCc3cncc(c3)Nc3ncc(Cl)c(n3)N4)CC2)no1 [Example D218, 6-Chloro-N-(2-{1-[(5-methylisoxazol-3-yl)carbonyl]piperidin-4-yl}ethyl)-2,4,8,18,22-pentaazatetracyclo[14.3.1.1(3,7).1(9,13)]docosa-1(20),3(22),4,6,9(21),10,12,16,18-nonaen-12-amine tris(trifluoroacetate)]",> 400,64,46,13
"CC(=O)N1CCC(CCNc2ccc3cc2CCc2cncc(c2)Nc2ncc(Cl)c(n2)N3)CC1 [Example D219, N-[2-(1-Acetylpiperidin-4-yl)ethyl]-6-chloro-2,4,8,18,22-pentaazatetracyclo[14.3.1.1(3,7).1(9,13)]docosa-1(20),3(22),4,6,9(21),10,12,16,18-nonaen-12-amine tris(trifluoroacetate)]",> 400,49,38,14
"O=C(c1ccc(F)cc1F)N1CCC(CCNc2ccc3cc2CCc2cncc(c2)Nc2ncc(Cl)c(n2)N3)CC1 [Example D220, 6-Chloro-N-{2-[1-(2,4-difluorobenzoyl)piperidin-4-yl]ethyl}-2,4,8,18,22-pentaazatetracyclo[14.3.1.1(3,7).1(9,13)]docosa-1(20),3(22),4,6,9(21),10,12,16,18-nonaen-12-amine tris(trifluoroacetate)]",> 400,40,38,14
"O=S(=O)(c1ccccc1F)N1CCC(CCNc2ccc3cc2CCc2cncc(c2)Nc2ncc(Cl)c(n2)N3)CC1 [Example D221, 6-Chloro-N-(2-{1-[(2-fluorophenyl)sulfonyl]piperidin-4-yl}ethyl)-2,4,8,18,22-pentaazatetracyclo[14.3.1.1(3,7).1(9,13)]docosa-1(20),3(22),4,6,9(21),10,12,16,18-nonaen-12-amine tris(trifluoroacetate)]",> 400,70,59,20
"N#Cc1ccccc1S(=O)(=O)N1CCC(CCNc2ccc3cc2CCc2cncc(c2)Nc2ncc(Cl)c(n2)N3)CC1 [Example D222, 2-{[4-(2-{[6-Chloro-2,4,8,18,22-pentaazatetracyclo[14.3.1.1(3,7).1(9,13)]docosa-1(20),3(22),4,6,9(21),10,12,16,18-nonaen-12-yl]amino}ethyl)piperidin-1-yl]sulfonyl}benzonitrile tris(trifluoroacetate)]",> 400,111,90,21
"CN1c2cccc(c2)CCc2cccc(c2)Nc2nccc1n2 [Example D223, 8-Methyl-2,4,8,22-tetraazatetracyclo[14.3.1.1(3,7).1(9,13)]docosa-1(20),3(22),4,6,9(21),10,12,16,18-nonaene trifluoroacetate]",> 400,106,> 400,> 400
"CN1c2cccc(c2)CCc2cncc(c2)Nc2nccc1n2 [Example D224, 8-Methyl-2,4,8,18,22-pentaazatetracyclo[14.3.1.1(3,7).1(9,13)]docosa-1(20),3(22),4,6,9(21),10,12,16,18-nonaene bis(trifluoroacetate)]",> 400,126,> 400,300
"Clc1cnc2nc1Nc1ccc(OCC3CCNCC3)c(c1)CCc1cncc(c1)N2 [Example D225, 6-Chloro-12-(piperidin-4-ylmethoxy)-2,4,8,18,22-pentaazatetracyclo[14.3.1.1(3,7).1(9,13)]docosa-1(20),3(22),4,6,9(21),10,12,16,18-nonaene tris(trifluoroacetate)]",> 400,> 400,> 400,180
"Cc1cc(C(=O)N2CCC(COc3ccc4cc3CCc3cncc(c3)Nc3ncc(Cl)c(n3)N4)CC2)no1 [Example D226, 6-Chloro-12-({1-[(5-methylisoxazol-3-yl)carbonyl]piperidin-4-yl}methoxy)-2,4,8,18,22-pentaazatetracyclo[14.3.1.1(3,7).1(9,13)]docosa-1(20),3(22),4,6,9(21),10,12,16,18-nonaene bis(trifluoroacetate)]",> 400,> 400,> 400,255
"CC(=O)N1CCC(COc2ccc3cc2CCc2cncc(c2)Nc2ncc(Cl)c(n2)N3)CC1 [Example D227, 12-[(1-Acetylpiperidin-4-yl)methoxy]-6-chloro-2,4,8,18,22-pentaazatetracyclo[14.3.1.1(3,7).1(9,13)]docosa-1(20),3(22),4,6,9(21),10,12,16,18-nonaene bis(trifluoroacetate)]",> 400,148,> 400,72
